# Calls of active or inactive are those of the source. The calls are words filed in the database; no cut-off is given here.
# What was measured:
# [1] = system: U-937; assay: Antiproliferative activity against human procaspase-3 over-expressing U937 cells after 24 hrs by CCK-8 assay; type: functional, cell-based; details: U-937, 24 h
# [2] = system: MCF7; assay: Antiproliferative activity against human MCF7 cells after 24 hrs by CCK-8 assay; type: functional, cell-based; details: MCF7, 24 h
# [3] = Selectivity ratio of IC50 for human MCF7 cells to IC50 for human procaspase-3 over-expressing U937 cells; type: functional
# [4] = system: U-937; assay: Induction of apoptosis in human U937 cells assessed as caspase-3 activity at 30 uM using Ac-DEVD-AFC as substrate preincubated for 16 hrs followed by substrate addition and measured after 60 mins by fluorescence assay (reference value: 7+/- 1%); type: functional
# [5] = Toxicity in zebrafish AB embryos at 40 uM after 48 hrs post fertilization by stereo microscopic analysis; parameters: species or system Danio rerio; details: in vivo
# [6] = system: U-937; assay: Induction of apoptosis in human U937 cells assessed as late apoptotic cells at 3.3 uM after 24 hrs by Annexin V-FITC/propidium iodide staining-based flow cytometric analysis (reference value: 3.27%); type: functional
# [7] = Intrinsic clearance in human liver microsomes in presence of NADPH by LC-MS analysis; type: ADME, Microsome; details: read-out: CLH
# [8] = Toxicity in zebrafish AB embryos at 5 to 20 uM measured at 24 to 72 hrs post fertilization by stereo microscopic analysis; parameters: species or system Danio rerio; details: in vivo
# [9] = Intrinsic clearance in rat liver microsomes in presence of NADPH by LC-MS analysis; type: ADME, Microsome; details: read-out: CLH
# [10] = Half life in rat liver microsomes in presence of NADPH by LC-MS analysis; type: ADME, Microsome
# [11] = biological target: T1, Caspase-3 (Homo sapiens) (UniProt P42574); assay: Activation of procaspase-3 (unknown origin) at 10 uM using Ac-DEVD-AFC as substrate preincubated for 4 hrs followed by substrate addition and measured after 5 mins by fluorescence assay relative to control
# T1 sequence (whole entry): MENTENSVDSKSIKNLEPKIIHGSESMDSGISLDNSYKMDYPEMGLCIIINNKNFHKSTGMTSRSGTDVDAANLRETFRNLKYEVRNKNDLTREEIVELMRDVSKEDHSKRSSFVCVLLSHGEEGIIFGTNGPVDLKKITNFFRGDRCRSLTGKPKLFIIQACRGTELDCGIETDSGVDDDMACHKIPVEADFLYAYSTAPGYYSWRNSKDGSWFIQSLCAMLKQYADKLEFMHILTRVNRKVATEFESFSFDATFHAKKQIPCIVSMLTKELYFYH
# [12] = system: U-937; assay: Induction of apoptosis in human U937 cells assessed as late apoptotic cells at 6.6 uM after 24 hrs by Annexin V-FITC/propidium iodide staining-based flow cytometric analysis (reference value: 3.27%); type: functional
# [13] = system: U-937; assay: Induction of apoptosis in human U937 cells assessed as late apoptotic cells at 6.6 uM after 48 hrs by Annexin V-FITC/propidium iodide staining-based flow cytometric analysis (reference value: 3.89%); type: functional
# [14] = Half life in human liver microsomes in presence of NADPH by LC-MS analysis; type: ADME, Microsome
# [15] = system: U-937; assay: Induction of apoptosis in human U937 cells assessed as early apoptotic cells at 6.6 uM after 48 hrs by Annexin V-FITC/propidium iodide staining-based flow cytometric analysis (reference value: 6.16%); type: functional
# [16] = species on record: Danio rerio; assay: Induction of apoptosis in zebrafish AB embryos assessed as increase in bax mRNA expression at 40 to 60 uM after 24 hrs post fertilization by RT-PCR analysis; type: functional, organism-based
# [17] = species on record: Danio rerio; assay: Induction of apoptosis in zebrafish AB embryos assessed as accumulation of dying cells in head at 40 to 60 uM after 24 hrs post fertilization by acridine orange staining-based fluorescence microscopic analysis; type: functional, organism-based
# [18] = system: U-937; assay: Induction of apoptosis in human U937 cells assessed as late apoptotic cells at 3.3 uM after 48 hrs by Annexin V-FITC/propidium iodide staining-based flow cytometric analysis (reference value: 3.89%); type: functional
# [19] = Intrinsic clearance in mouse liver microsomes in presence of NADPH by LC-MS analysis; type: ADME, Microsome; details: read-out: CLH
# [20] = system: U-937; assay: Induction of apoptosis in human U937 cells assessed as early apoptotic cells at 3.3 uM after 48 hrs by Annexin V-FITC/propidium iodide staining-based flow cytometric analysis (reference value: 6.16%); type: functional
# [21] = Toxicity in zebrafish AB embryos assessed as induction of mortality at 40 uM after 72 hrs post fertilization by stereo microscopic analysis; parameters: species or system Danio rerio; details: in vivo
# [22] = species on record: Danio rerio; assay: Induction of apoptosis in zebrafish AB embryos assessed as accumulation of dying cells in cranial neural crest at 40 to 60 uM after 24 hrs post fertilization by acridine orange staining-based fluorescence microscopic analysis; type: functional, organism-based
# [23] = system: U-937; assay: Induction of apoptosis in human U937 cells assessed as early apoptotic cells at 3.3 uM after 24 hrs by Annexin V-FITC/propidium iodide staining-based flow cytometric analysis (reference value: 4.88%); type: functional
# [24] = system: U-937; assay: Induction of apoptosis in human U937 cells assessed as early apoptotic cells at 6.6 uM after 24 hrs by Annexin V-FITC/propidium iodide staining-based flow cytometric analysis (reference value: 4.88%); type: functional
# [25] = Half life in mouse liver microsomes in presence of NADPH by LC-MS analysis; type: ADME, Microsome
structure (smiles),measurement,setting,value
CCN(CC)Cc1ccc2nc(NC(=O)NN=C(c3ccccn3)c3ccccn3)sc2c1,IC50,[1],9.1 µM
same,IC50,[2],> 40 µM
same,Ratio IC50,[3],4.3
same,Activity,[4],119%
C/C(=N\NC(=O)Nc1nc2ccc(CN3CCC(C)CC3)cc2s1)c1ccccc1,IC50,[1],> 40 µM
same,IC50,[2],> 40 µM
C/C(=N\NC(=O)Nc1ccc(CN2CCC(C)CC2)cc1)c1ccccn1,IC50,[1],> 40 µM
same,IC50,[2],> 40 µM
CC1CCN(Cc2ccc(NC(=O)NN=C(c3ccccn3)c3ccccn3)cc2)CC1,IC50,[1],> 40 µM
same,IC50,[2],> 40 µM
CN(C)Cc1ccc2nc(NC(=O)NN=C(c3ccccn3)c3ccccn3)sc2c1,IC50,[1],7.8 µM
same,IC50,[2],> 40 µM
same,Ratio IC50,[3],5.1
same,Activity,[4],104%
CCN(CC)Cc1ccc2nc(NC(=O)N/N=C(\C)c3ccccn3)sc2c1,IC50,[1],15.6 µM
same,IC50,[2],> 40 µM
same,Ratio IC50,[3],2.6
CCN(CC)Cc1ccc2nc(NC(=O)N/N=C(\C)c3cnccn3)sc2c1,IC50,[1],> 40 µM
same,IC50,[2],> 40 µM
CCN(CC)Cc1ccc(NC(=O)N/N=C(\C)c2ccccn2)cc1,IC50,[1],> 40 µM
same,IC50,[2],> 40 µM
CCN(CC)Cc1ccc(NC(=O)NN=C(c2ccccn2)c2ccccn2)cc1,IC50,[1],> 40 µM
same,IC50,[2],> 40 µM
CCN(CC)Cc1ccc(NC(=O)NN=C(c2ccccc2)c2ccccc2)cc1,IC50,[1],> 25 µM
same,IC50,[2],13.1 µM
same,Ratio IC50,[3],<1
same,Activity,[4],20%
CC1CCN(Cc2ccc3nc(NC(=O)NN=C(c4ccccn4)c4ccccn4)sc3c2)CC1,Activity,[5],Toxic
same,Activity,[6],6.75%
same,CLint scaled,[7],22 mL/min/kg
same,IC50,[1],6.6 µM
same,Activity,[8],Non-Toxic
same,CLint scaled,[9],33.6 mL/min/kg
same,half-life,[10],1.23 h
same,Activity,[11],92.1%
same,Activity,[12],8.5%
same,Activity,[13],17.66%
same,half-life,[14],1.32 h
same,IC50,[2],> 40 µM
same,Activity,[15],26.89%
same,Activity,[16],Active
same,Activity,[17],Active
same,Ratio IC50,[3],6
same,Activity,[18],9.86%
same,CLint scaled,[19],326 mL/min/kg
same,Activity,[20],20.55%
same,Activity,[21],Toxic
same,Activity,[22],Active
same,Activity,[23],15.85%
same,Activity,[24],19.27%
same,Activity,[4],114%
same,half-life,[25],0.279 h
C/C(=N\NC(=O)Nc1nc2ccc(CN(C)C)cc2s1)c1ccccn1,IC50,[1],20.1 µM
same,IC50,[2],> 40 µM
same,Ratio IC50,[3],2
same,Activity,[4],68%
CN(C)Cc1ccc(NC(=O)NN=C(c2ccccn2)c2ccccn2)cc1,IC50,[1],> 40 µM
same,IC50,[2],> 40 µM
CC1CCN(Cc2ccc3nc(NC(=O)N/N=C/c4ccccn4)sc3c2)CC1,IC50,[1],21.5 µM
same,IC50,[2],> 40 µM
same,Ratio IC50,[3],1.6
